Patent US6429204B1, “Method of inhibiting cancer growth” (University of Miami, priority 1997, dated 2002)

What was measured:
Gelatinase A = target: T1, Gelatinase A (Homo sapiens, UniProt P08253); test: Zymography with densitometry of C8161 conditioned medium, gelatinase A; assay type: cell-based; details: 50 μg/mL, 24 hr
T1 construct: endogenous in cells; host or cells: C8161
T1 sequence (P08253 110-660): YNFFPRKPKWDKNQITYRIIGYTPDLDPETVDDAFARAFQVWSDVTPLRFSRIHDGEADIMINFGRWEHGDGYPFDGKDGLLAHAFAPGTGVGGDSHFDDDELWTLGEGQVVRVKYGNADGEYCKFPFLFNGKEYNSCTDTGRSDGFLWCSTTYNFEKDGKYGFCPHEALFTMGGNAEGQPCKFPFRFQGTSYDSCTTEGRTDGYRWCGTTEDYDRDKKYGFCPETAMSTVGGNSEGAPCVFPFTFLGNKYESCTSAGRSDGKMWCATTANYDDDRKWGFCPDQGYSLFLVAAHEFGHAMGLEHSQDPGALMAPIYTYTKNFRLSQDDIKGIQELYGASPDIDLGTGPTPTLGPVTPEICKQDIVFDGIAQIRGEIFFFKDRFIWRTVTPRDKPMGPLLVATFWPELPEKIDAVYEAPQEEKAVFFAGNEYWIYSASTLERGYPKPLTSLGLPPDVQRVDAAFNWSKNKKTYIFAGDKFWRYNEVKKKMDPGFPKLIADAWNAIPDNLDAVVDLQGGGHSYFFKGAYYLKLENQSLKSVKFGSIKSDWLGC
Experimental: (§1) Six hundred thousand (6×10^5) C8161 cells were seeded per well in a 12-well dish coated with a laminin/collagen IV/gelatin matrix in DMEM plus Mito+ and 0.1% gentamicin sulfate. After approximately 1 hr incubation to allow the cells to attach, 50 μg/mL of either doxycycline or one of the other CMTs was added per well and the dish then placed in a 37° C. humidified 5% CO2 incubator. After 24 hr, the supernatants were removed and centrifuged to remove any cells or debris. One volume of Laemmli sample buffer minus reductant was added to two volumes of the medium, and this sample electrophoresed without prior heating or boiling on a 10% SDS-PAGE containing 0.1% gelatin (samples normalized based on the same number of cells per volume of medium per time of incubation). After electrophoresis, the gels were washed with gentle shaking at room temperature for 30 min in 50 mM Tris-HCl (pH 7.5) plus 2.5% TRITON® X100 plus 50 μg/mL of the corresponding CMT used in the original treatment. The gel was then placed in incubation buffer (50 mM Tris-Cl/10 mM CaCl2/150 mM NaCl/0.05% NaN3) also containing 50 μg/mL of the corresponding CMT, and incubated at 37° C. for 20-24 hr. The gels were stained with Coomassie BBR-250, then destained with 10% methanol/10% acetic acid in water until the wash remained clear. A photographic negative of the gel was digitized using a video camera and Snappy Video Snapshot system (Play Inc., Rancho Cordova, Calif.). An integrated density was determined for each of the cleared zones of proteolysis using the software ImagePC8α (freely available from the National Institutes of Health), and the corresponding changes in gelatinolytic activities reported compared to the control samples normalized to a value of 1.0.

Gelatinase B = target: T2, Gelatinase B (Homo sapiens, UniProt P14780); test: Zymography with densitometry of C8161 conditioned medium, gelatinase B; assay type: cell-based; details: 50 μg/mL, 24 hr
T2 construct: endogenous in cells; host or cells: C8161
Experimental: as §1

[1] = system: normal prostate stromal cells; test: Alamar Blue viability assay, normal prostate stromal cells; assay type: cell-based, human
From the text: (§2) Several cancer cell lines and normal cells were examined in vitro to determine whether tetracycline compounds produce cytotoxic (cell killing) effects. A conventional assay for viability of cultured cells based on redox activity in the cells was employed (Pagé et al. 1993). The assay uses a redox dye Alamar Blue, which is a fluorogenic indicator dye that is converted to a fluorescent red product only when cells are carrying out electron transport activity, a widely accepted criterion of viability.
Cultured cells from three prostate tumor cell lines, LNCAP, DU-145, and PC-3, and normal prostate stromal cells obtained by biopsy of a normal person, were allowed to grow to confluence in multiwell microplates to minimize differences in proliferative activity among the cell types at the time of exposure to the test compound. […] At the start of the experiment, and again at 1, 2, and 3 days, selected wells were incubated with the indicator dye for 3 hr, and the fluorescence was measured on a Cytofluor 2300 fluorescent microplate reader.

gelatinase B (MMP-9) = test: Gelatin zymography of conditioned media of TSU PR1 and MAT LyLu cells, MMP-9; assay type: cell-based; details: 48 hours, serum-free medium
Experimental: Next we examined whether CMT-3 and doxycycline differentially affect the production of two major classes of gelatinases: gelatinase A (MMP-2) and gelatinase B (MMP-9). Confluent cultures of TSU PR1 and MAT LyLu cells were incubated with various concentrations of doxycycline and CMT-3 for 48 hours in serum-free medium. The conditioned media were then analyzed for MMPs by zymography as described below.
Conditioned media were collected from the cultures that had been treated with doxycycline or CMT-3 for 2 days. Media were then incubated with SDS-gel electrophoresis sample buffer for 30 min at room temperature, and then analyzed by gel electrophoresis on SDS-polyacrylamide gel (8%) containing gelatin (1 mg/mL). Following electrophoresis, the gels were washed twice with 0.25% TRITON® X100 for 30 min each, and incubated for 18 hr at 37° C. in an MMP digestion buffer comprising 20 mM Tris-HCl, pH 7.4, containing 30 mM NaCl, 1 mM PMSF, 10 mM CaCl2, 2 μM ZnSO4, 0.005% Brij35, and 0.02 NaN3 (Lokeshwar 1993a). After incubation, the gels were briefly rinsed in distilled water and stained with 0.25% Coomassie brilliant blue R250 prepared in 40% isopropanol solution for 1 hr. Gels were destained with 7% acetic acid. the locations of MMPs in the gels were visible as clear areas on a blue background, indicative of digested gelatin.

PC-3 tumor cells = test: Alamar Blue viability assay, PC-3; assay type: cell-based, human
From the text: as §2
Cultured cells from three prostate tumor cell lines, LNCAP, DU-145, and PC-3, and normal prostate stromal cells obtained by biopsy of a normal person, were allowed to grow to confluence in multiwell microplates to minimize differences in proliferative activity among the cell types at the time of exposure to the test compound. CMT-3 was added to the wells at concentrations of 10 μM and 20 μM (50 μM also in the case of DU-145). At the start of the experiment, and again at 1, 2, and 3 days, selected wells were incubated with the indicator dye for 3 hr, and the fluorescence was measured on a Cytofluor 2300 fluorescent microplate reader.

Serum half-life = assay type: in vivo

T2 sequence (P14780 94-707): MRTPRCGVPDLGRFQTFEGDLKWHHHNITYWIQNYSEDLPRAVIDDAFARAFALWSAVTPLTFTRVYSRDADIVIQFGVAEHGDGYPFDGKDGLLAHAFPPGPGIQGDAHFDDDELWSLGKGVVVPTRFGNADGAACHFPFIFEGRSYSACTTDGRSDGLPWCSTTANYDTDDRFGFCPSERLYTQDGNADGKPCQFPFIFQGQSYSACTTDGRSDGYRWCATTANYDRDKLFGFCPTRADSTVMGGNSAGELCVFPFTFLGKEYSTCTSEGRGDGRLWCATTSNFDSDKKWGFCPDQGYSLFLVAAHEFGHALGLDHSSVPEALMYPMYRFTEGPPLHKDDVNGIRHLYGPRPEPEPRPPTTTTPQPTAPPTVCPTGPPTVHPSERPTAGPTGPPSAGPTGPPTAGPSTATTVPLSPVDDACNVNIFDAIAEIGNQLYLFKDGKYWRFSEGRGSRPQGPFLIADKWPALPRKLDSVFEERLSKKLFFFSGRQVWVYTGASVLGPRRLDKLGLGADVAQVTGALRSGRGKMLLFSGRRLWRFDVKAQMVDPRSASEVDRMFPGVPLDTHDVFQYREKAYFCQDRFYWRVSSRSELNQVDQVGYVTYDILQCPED

Gelatinase A, integrated density normalized to control 1.00 (Gelatinase A): 0.22
Gelatinase B, integrated density normalized to control 1.00 (Gelatinase B): 0.03
half-life (Serum half-life): ~28 h
Structure (SMILES): NC(=O)C1=C(O)CC2CC3Cc4cccc(O)c4C(=O)C3=C(O)C2(O)C1=O (stereo not drawn) [CMT-3, 6-demethyl-6-deoxy-4-de(dimethylamino)tetracycline]
change in fluorescence (viability) ([1]; 10 μM and 20 μM, three-day period): virtually no change in fluorescence
cytotoxicity ([1]; 50 µM): no comparable cytotoxicity
MMP-9 levels in conditioned media (zymography) (gelatinase B (MMP-9)): decreased MMP-2 and MMP-9 levels at a lower concentration than did doxycycline
cytotoxicity (PC-3 tumor cells; 24 hr): about 25%
cytotoxicity (PC-3 tumor cells; 48 hr): ~50%
cytotoxicity (PC-3 tumor cells; 72 hr): ~75%
